Patent US20260078119A1, “DEGRADER COMPOUNDS AND USES THEREOF” (Bristol-Myers Squibb Company, priority 2024, published 2026)

What was measured:
[1] = biological target: T1, FAK (Homo sapiens, UniProt Q05397); test: FAK-HiBiT Degradation Assay; format: cell-based; details: for DC50: JHH-4-FAK-HiBiT clone d01 cells, two hours incubation, 10-point dose response, 3-fold dilution starting at 1 μM, Nano-Glo HiBiT luminescence, read-out: FAK HiBiT EC50; for FAK HiBiT Ymin: lower limit of the four parameter fit (value A), Ymax derived using DMSO control, JHH-4-FAK-HiBiT cells, two hours
T1 construct: homozygous knock-in of a HiBiT tag (Promega Corporation, Madison, WI) to the C-terminus of the FAK gene in its natural genomic locus; endogenous in cells; host or cells: JHH-4-FAK-HiBiT clone d01 (CRISPR-Cas9 knock-in at the endogenous locus)
Method in brief: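 Degradation read out by HiBiT lytic luminescence after 2 h compound exposure (top concentration 1 μM, 3-fold, 10 points) in JHH-4 clone d01 bearing endogenous FAK-HiBiT knock-in. Four-parameter logistic fit gave EC50 and Ymin; DMSO wells defined Ymax.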

[2] = system: CAL-51 cells; test: CAL-51 Cell Proliferation Assay; format: cell-based; details: for EC50: Homo sapiens, 120 hours incubation, 10-point dose response, 4-fold dilutions starting at 10 μM, Cell-Titer-Glo, read-out: CAL-51 Prolif EC50; for CAL-51 Prolif Ymin: minimal percent of DMSO control observed in the concentrations tested (Ymin-obs), 120 hours
Method in brief: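 EC50 comes from a four-parameter logistic fit of blank-corrected, DMSO-normalised CellTiter-Glo signal after 120 h growth (37 °C, 350 cells/well, RPMI complete medium). Compounds ran as 10-point 4-fold series starting at 10 μM, duplicate, 0.1% DMSO. Ymin-obs records the minimal percent of DMSO control observed.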

T1 sequence (Q05397 whole entry): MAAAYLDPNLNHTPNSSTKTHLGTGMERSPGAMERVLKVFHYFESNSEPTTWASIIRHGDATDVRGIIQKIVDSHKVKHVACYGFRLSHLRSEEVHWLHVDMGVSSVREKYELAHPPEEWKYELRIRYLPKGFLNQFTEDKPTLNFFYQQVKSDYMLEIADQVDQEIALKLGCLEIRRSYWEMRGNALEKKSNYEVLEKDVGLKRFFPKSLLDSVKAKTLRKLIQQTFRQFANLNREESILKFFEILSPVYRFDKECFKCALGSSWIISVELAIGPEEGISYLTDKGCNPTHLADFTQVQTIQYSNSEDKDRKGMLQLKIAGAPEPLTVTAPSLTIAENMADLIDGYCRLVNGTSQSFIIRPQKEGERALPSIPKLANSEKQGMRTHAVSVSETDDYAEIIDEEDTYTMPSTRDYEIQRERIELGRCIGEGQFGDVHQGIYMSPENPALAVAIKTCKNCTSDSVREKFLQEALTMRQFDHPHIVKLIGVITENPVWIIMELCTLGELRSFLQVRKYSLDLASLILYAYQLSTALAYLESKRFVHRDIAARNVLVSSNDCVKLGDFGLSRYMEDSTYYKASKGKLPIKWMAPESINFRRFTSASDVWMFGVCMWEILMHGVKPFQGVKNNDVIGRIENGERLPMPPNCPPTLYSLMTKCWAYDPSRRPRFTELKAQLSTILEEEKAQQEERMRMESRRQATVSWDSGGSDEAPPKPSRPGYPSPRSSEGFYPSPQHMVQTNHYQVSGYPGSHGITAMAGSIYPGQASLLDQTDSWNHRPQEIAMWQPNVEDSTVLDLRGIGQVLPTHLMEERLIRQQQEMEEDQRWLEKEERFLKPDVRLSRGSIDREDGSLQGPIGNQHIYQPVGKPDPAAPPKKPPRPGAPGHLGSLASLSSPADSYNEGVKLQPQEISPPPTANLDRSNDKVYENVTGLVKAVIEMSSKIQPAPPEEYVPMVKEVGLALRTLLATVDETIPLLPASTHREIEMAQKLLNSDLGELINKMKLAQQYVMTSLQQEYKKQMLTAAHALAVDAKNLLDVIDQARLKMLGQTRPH

Row | DC50 [1] [nM] | FAK HiBiT Ymin [1] | SMILES | EC50 [2] [nM] | CAL-51 Prolif Ymin [2]
1 | 1.22 | 10.49 | N#Cc1ccc(-c2c(F)c(N3CC(F)C3)nc3c2cnn3Cc2ccc3c(c2)CN(C2CCC(=O)NC2=O)C3=O)c(F)c1 (stereo not drawn) [Example 41, 4-(1-{[2-(2,6-dioxopiperidin-3-yl)-1-oxo-2,3-dihydro-1H-isoindol-5-yl]methyl}-5-fluoro-6-(3-fluoroazetidin-1-yl)-1H-pyrazolo[3,4-b]pyridin-4-yl)-3-fluorobenzonitrile] | 1.23 | 26.68
2 | 0.64 | 6.28 | O=C1CCC(N2Cc3cc(Cn4ncc5c(-c6ncc(C(F)(F)F)cc6Cl)cc(N6CCCC6)nc54)ccc3C2=O)C(=O)N1 (stereo not drawn) [Example 11, 3-[5-({4-[3-chloro-5-(trifluoromethyl)pyridin-2-yl]-6-(pyrrolidin-1-yl)-1H-pyrazolo[3,4-b]pyridin-1-yl}methyl)-1-oxo-2,3-dihydro-1H-isoindol-2-yl]piperidine-2,6-dione] | 0.34 | 22.89
3 | ≥ 1000 | 87.20 | Cc1cnc(-c2cc(N3CC(F)C3)nc3c2cnn3Cc2ccc3c(c2)CN(C2CCC(=O)NC2=O)C3=O)nc1 (stereo not drawn) [Example 138, 3-(5-{[6-(3-fluoroazetidin-1-yl)-4-(5-methylpyrimidin-2-yl)-1H-pyrazolo[3,4-b]pyridin-1-yl]methyl}-1-oxo-2,3-dihydro-1H-isoindol-2-yl)piperidine-2,6-dione] | 160 | 89.63
4 | 45.3 | 14.00 | Cc1cc(C(F)(F)F)cnc1-c1cc(N2CC[C@H](O)C2)nc2c1cnn2Cc1ccc2c(c1)CN([C@H]1CCC(=O)NC1=O)C2=O [Example 110, (3S)-3-[5-({6-[(3S)-3-hydroxypyrrolidin-1-yl]-4-[3-methyl-5-(trifluoromethyl)pyridin-2-yl]-1H-pyrazolo[3,4-b]pyridin-1-yl}methyl)-1-oxo-2,3-dihydro-1H-isoindol-2-yl]piperidine-2,6-dione] | 186 | 10.20
5 | 26.8 | 9.53 | O=C1CCC(N2Cc3cc(Cn4ncc5c(-c6ncc(F)cc6Cl)cc(N6CC[C@H](O)C6)nc54)ccc3C2=O)C(=O)N1 (stereo partly drawn) [Example 100, 3-(5-{[4-(3-chloro-5-fluoropyridin-2-yl)-6-[(3S)-3-hydroxypyrrolidin-1-yl]-1H-pyrazolo[3,4-b]pyridin-1-yl]methyl}-1-oxo-2,3-dihydro-1H-isoindol-2-yl)piperidine-2,6-dione] | 13.4 | 29.27
6 | 95.4 | 40.50 | N#Cc1cnc(-c2cc(N3CC[C@H](O)C3)nc3c2cnn3Cc2ccc3c(c2)CN([C@H]2CCC(=O)NC2=O)C3=O)c(F)c1 [Example 121, 6-[1-({2-[(3S)-2,6-dioxopiperidin-3-yl]-1-oxo-2,3-dihydro-1H-isoindol-5-yl}methyl)-6-[(3S)-3-hydroxypyrrolidin-1-yl]-1H-pyrazolo[3,4-b]pyridin-4-yl]-5-fluoropyridine-3-carbonitrile] | 1360 | 75.47
7 | 0.71 | 8.83 | Cc1cc(C(F)(F)F)cnc1-c1cc(N2CC(F)C2)nc2c1cnn2Cc1ccc2c(c1)CN(C1CCC(=O)NC1=O)C2=O (stereo not drawn) [Example 29, 3-(5-{[6-(3-fluoroazetidin-1-yl)-4-[3-methyl-5-(trifluoromethyl)pyridin-2-yl]-1H-pyrazolo[3,4-b]pyridin-1-yl]methyl}-1-oxo-2,3-dihydro-1H-isoindol-2-yl)piperidine-2,6-dione] | 1.23 | 30.94
8 | 1.54 | 9.84 | Cc1nc2c(-c3ncc(C(F)(F)F)cc3Cl)cc(N3CC(F)C3)nc2n1Cc1ccc2c(c1)CN(C1CCC(=O)NC1=O)C2=O (stereo not drawn) [Example 21, 3-(5-((7-(3-chloro-5-(trifluoromethyl)pyridin-2-yl)-5-(3-fluoroazetidin-1-yl)-2-methyl-3H-imidazo[4,5-b]pyridin-3-yl)methyl)-1-oxoisoindolin-2-yl)piperidine-2,6-dione] | 0.91 | 23.08
9 | 1.79 | 8.57 | CCOc1cnc(-c2cc(N3CC(F)C3)nc3c2cnn3Cc2ccc3c(c2)CN(C2CCC(=O)NC2=O)C3=O)c(C#N)c1 (stereo not drawn) [Example 46, 2-(1-{[2-(2,6-dioxopiperidin-3-yl)-1-oxo-2,3-dihydro-1H-isoindol-5-yl]methyl}-6-(3-fluoroazetidin-1-yl)-1H-pyrazolo[3,4-b]pyridin-4-yl)-5-ethoxypyridine-3-carbonitrile] | 0.91 | 30.10
10 | 0.42 | 7.37 | CCOc1cnc(-c2c(Cl)c(N3CC(F)C3)nc3c2cnn3Cc2ccc3c(c2)CN([C@H]2CCC(=O)NC2=O)C3=O)c(C(F)(F)F)c1 [Example 4, (3S)-3-[5-({5-chloro-4-[5-ethoxy-3-(trifluoromethyl)pyridin-2-yl]-6-(3-fluoroazetidin-1-yl)-1H-pyrazolo[3,4-b]pyridin-1-yl}methyl)-1-oxo-2,3-dihydro-1H-isoindol-2-yl]piperidine-2,6-dione] | 0.52 | 1.90
11 | 3.6 | 7.65 | O=C1CC[C@H](N2Cc3c(ccc(Cn4ncc5c(-c6ncc(F)cc6Cl)cc(N6CC(F)C6)nc54)c3F)C2=O)C(=O)N1 (single isomer, unassigned) [Example 61] | 7.1 | 35.56
12 | 109 | 45.54 | O=C1CC[C@H](N2Cc3cc(Cn4ncc5c(-c6ncc(F)cc6F)cc(N6CC[C@H](O)C6)nc54)ccc3C2=O)C(=O)N1 [Example 123, (3S)-3-(5-{[4-(3,5-difluoropyridin-2-yl)-6-[(3S)-3-hydroxypyrrolidin-1-yl]-1H-pyrazolo[3,4-b]pyridin-1-yl]methyl}-1-oxo-2,3-dihydro-1H-isoindol-2-yl)piperidine-2,6-dione] | 28.3 | 78.23
13 | 13.6 | 15.97 | O=C1CCC(N2Cc3cc(Cn4ncc5c(-c6ncc(Cl)cc6F)cc(N6CC(F)C6)nc54)ccc3C2=O)C(=O)N1 (stereo not drawn) [Example 90, 3-(5-{[4-(5-chloro-3-fluoropyridin-2-yl)-6-(3-fluoroazetidin-1-yl)-1H-pyrazolo[3,4-b]pyridin-1-yl]methyl}-1-oxo-2,3-dihydro-1H-isoindol-2-yl)piperidine-2,6-dione] | 10.4 | 37.96
14 | 8 | 8.29 | O=C1CC[C@H](N2Cc3cc(Cn4ncc5c(-c6ncc(C(F)(F)F)cc6Cl)cc(N6CC(F)C6)nc54)cnc3C2=O)C(=O)N1 [Example 77, (3S)-3-[3-({4-[3-chloro-5-(trifluoromethyl)pyridin-2-yl]-6-(3-fluoroazetidin-1-yl)-1H-pyrazolo[3,4-b]pyridin-1-yl}methyl)-7-oxo-5H,6H,7H-pyrrolo[3,4-b]pyridin-6-yl]piperidine-2,6-dione] | 3.67 | 28.95
15 | 5.06 | 9.35 | CCOc1ccc(-c2c(F)c(N3CC[C@](C)(O)C3)nc3c2cnn3Cc2ccc3c(c2)CN([C@H]2CCC(=O)NC2=O)C3=O)c(Cl)c1 [Example 67, (3S)-3-(5-{[4-(2-chloro-4-ethoxyphenyl)-5-fluoro-6-[(3S)-3-hydroxy-3-methylpyrrolidin-1-yl]-1H-pyrazolo[3,4-b]pyridin-1-yl]methyl}-1-oxo-2,3-dihydro-1H-isoindol-2-yl)piperidine-2,6-dione] | 1.6 | 28.60
16 | 21.1 | 5.97 | O=C1CCC(N2Cc3cc(Cn4cnc5c(-c6ncc(F)cc6Cl)cc(N6CC(F)C6)nc54)ccc3C2=O)C(=O)N1 (stereo not drawn) [Example 25, 3-(5-((7-(3-chloro-5-fluoropyridin-2-yl)-5-(3-fluoroazetidin-1-yl)-3H-imidazo[4,5-b]pyridin-3-yl)methyl)-1-oxoisoindolin-2-yl)piperidine-2,6-dione] | 146 | 46.08
17 | 0.56 | 6.93 | N#Cc1ccc(-c2c(Cl)c(N3CC(F)C3)nc3c2cnn3Cc2ccc3c(c2)CN(C2CCC(=O)NC2=O)C3=O)c(F)c1 (stereo not drawn) [Example 10, 4-(5-chloro-1-{[2-(2,6-dioxopiperidin-3-yl)-1-oxo-2,3-dihydro-1H-isoindol-5-yl]methyl}-6-(3-fluoroazetidin-1-yl)-1H-pyrazolo[3,4-b]pyridin-4-yl)-3-fluorobenzonitrile] | 75.4 | 33.21
18 | 6.62 | 11.02 | N#Cc1cnc(-c2cc(N3CC(F)C3)nc3c2cnn3Cc2ccc3c(c2)CN(C2CCC(=O)NC2=O)C3=O)c(Cl)c1 (stereo not drawn) [Example 73, 5-chloro-6-(1-{[2-(2,6-dioxopiperidin-3-yl)-1-oxo-2,3-dihydro-1H-isoindol-5-yl]methyl}-6-(3-fluoroazetidin-1-yl)-1H-pyrazolo[3,4-b]pyridin-4-yl)pyridine-3-carbonitrile] | 3.39 | 23.58
